Experimental data: patent publication US6867200B1, “(Hetero)aryl-bicyclic heteroaryl derivatives, their preparation and their use as protease inhibitors” (Axys Pharmaceuticals, Inc., priority 1998, dated 2005)

Key:
human Urokinase = biological target: T1, human Urokinase (Homo sapiens, UniProt P00749); test: Urokinase (uPA) inhibition, chromogenic substrate hydrolysis, Ki app.; format: biochemical
T1 construct: purchased American Diagnostica, CT, USA
Procedure: (§1) The effectiveness of compounds of the present invention as inhibitors of Urokinase and Factor Xa is determined using synthetic substrates and purified Urokinase and purified human Factor Xa respectively.
(§2) The rates of hydrolysis by the chromagenic substrates were measured both in the absence and presence of compounds of the present invention. […] The results of this assay are expressed as the inhibitory constant, Ki app.
Urokinase inhibition determinations were made in 50 mM Tris (pH7.5), 150 mM NaCl, 0.05% Tween-20, 0.002% antifoam, and 1 mM EDTA. human Urokinase (from American Diagnostica, CT, USA). […] The enzyme assay routinely yielded linear progression curves under these conditions. Initial velocity measurements calculated from the progress curves by a kinetic analysis program (Batch Ki; Peter Kuzmic, BioKin, Ltd., Madison, Wis.) were used to determine Ki app.

human Factor Xa = biological target: T2, human Factor Xa (Homo sapiens, UniProt P00742); test: Factor Xa inhibition, chromogenic substrate hydrolysis, Ki app.; format: biochemical; details: read-out: FXa Ki
T2 construct: purified human Factor Xa; purchased Haematologic Technologies, VT, USA
T2 sequence (P00742 235-488 limits assumed): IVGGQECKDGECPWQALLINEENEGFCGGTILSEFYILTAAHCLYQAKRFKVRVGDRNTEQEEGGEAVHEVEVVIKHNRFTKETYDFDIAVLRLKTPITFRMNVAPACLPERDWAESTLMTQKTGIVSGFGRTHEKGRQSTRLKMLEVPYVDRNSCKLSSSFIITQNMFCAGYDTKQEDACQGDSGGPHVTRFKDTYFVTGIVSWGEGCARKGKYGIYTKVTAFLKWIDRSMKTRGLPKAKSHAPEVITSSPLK
T2 sequence (P00742 41-179 partner limits assumed): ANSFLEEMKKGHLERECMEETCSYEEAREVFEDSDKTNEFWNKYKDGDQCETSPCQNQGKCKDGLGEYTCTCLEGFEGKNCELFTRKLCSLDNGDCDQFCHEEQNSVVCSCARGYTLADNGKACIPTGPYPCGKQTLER
Procedure: as §1, §2
Factor Xa determinations were made in 50 mM Tris buffer, pH 7.5, containing 1M NaCl, 5 mM CaCl2, 0.05% Tween-20, and 1.5 mM EDTA. […] The enzyme assay routinely yielded linear progression curves under these conditions. Initial velocity measurements calculated from the progress curves by a kinetic analysis program (Batch Ki; Peter Kuzmic, BioKin, Ltd., Madison, Wis.) were used to determine Ki app.

| SMILES | Ki (human Urokinase) | Ki (human Factor Xa) |
| --- | --- | --- |
| Cc1cc(-c2ccccc2)c(O)c(-c2cc3cc(C(=N)N)ccc3[nH]2)c1 [compound 820] | 65 nM | 298 nM |
| N=C(N)c1ccc2[nH]c(-c3cc(CCC(=O)O)cc(Br)c3O)c(Cc3ccccc3)c2c1 [Ex. 802, 3-[3-(3-Benzyl-5-carbamimidoyl-1H-indol-2-yl)-5-bromo-4-hydroxy-phenyl]-propionic acid] | 260 nM | 0.618 nM |
| N=C(N)c1cc2cc(-c3cc(CC(=O)N4CCS(=O)(=O)CC4)cc(-c4ccccc4)c3O)[nH]c2cc1Cl [compound 860] | 4 nM | 5400 nM |
| N=C(N)c1ccc2nc(-c3ccc(OCC(=O)NCc4cccc5ccccc45)cc3O)[nH]c2c1 [compound 258, 2-[4-(6-Carbamimidoyl-1H-benzoimidazol-2-yl)-3-hydroxy-phenoxy]-N-naphthalen-1-ylmethyl-acetamide] | – | 460 nM |
